Where “and” joins values, the source holds several entries; their conditions need not be identical. Identical values can stand only once.
What was measured:
[1] = system: HMGEC (immortalized human meibomian gland epithelial cells); assay: PPARγ-mediated lipid synthesis activity in HMGECs (LipidTox Green neutral lipid staining); assay type: cell-based; conditions: for Effect on lipid synthesis (in words): compared with Rosi
Experimental: Extracts of loquat and ginger identified in Example 1 are tested for their effect on lipid synthesis and PPARγ receptor activation using HMGECs. In particular, HMGECs are plated on collagen coated glass cover slips and treated with samples of each extract (varying concentrations in Media 1 with 0.1% DMSO), positive control (Rosi, 30 μM in Media 1 with 0.1% DMSO), and negative control (Media 1 with 0.1% DMSO) and incubated for 6 days. The treated cells are then fixed, stained with LipidTox Green, and the area of neutral lipid staining quantified.

[2] = system: PPARγ response genes ADFP, ELOVL4, and ANGPTL4; assay: Real-time PCR of PPARγ response gene expression; assay type: cell-based; conditions: FIGS. 1-4
Experimental: Loquat Extract #1 (“538”), and known phytochemical components thereof (oleanolic acid (“OA”); ursolic acid (“UA”)), are analyzed by real-time PCR (BioRad CFX96 Thermal Cycler, Hercules, Calif. (or equivalent)), to assess sample-induced expression of the PPARγ response genes ADFP, ELOVL4, and ANGPTL4 via mRNA quantification. In particular, samples are prepared and analyzed according to the procedure set forth in Jester et. al., “PPARγ regulates mouse meibocyte differentiation and lipid synthesis,” The Ocular Surface 14.4 (2016): 484-494, the disclosure of which is herein incorporated by […]. The results of the quantification are shown in FIGS. 1-4, where the vertical (Y) axis of each plot corresponds to the fold change in response observed.
To assess the effects on gene expression mediation via PPARγ signaling, a PPARγ-specific antagonist (T0070907; (“T”)) is added to inhibit PPARγ signaling. […] As such, Loquat leaf is shown to have specific and synergistic PPARγ agonist activity that may be unrelated to individual phytochemical components thereof.

Row | SMILES | % Lipid Mean (percent positive control, Rosi set at 100%) ([1]; 30 μM, 6 days) | Nuclei Mean ([1]; 30 μM, 6 days) | PPARγ response gene expression (mRNA of ADFP, ELOVL4, ANGPTL4; PPARγ), fold change, in words [2] | Effect on lipid synthesis (in words) [1]
1 | CN(CCOc1ccc(CC2SC(=O)NC2=O)cc1)c1ccccn1 (stereo not drawn) [Rosi, Rosiglitazone] | 97.5% and 100% | 1622.13 and 1070 | – | –
2 | CC1(C)CC[C@]2(C(=O)O)CC[C@]3(C)C(=CC[C@@H]4[C@@]5(C)CC[C@H](O)C(C)(C)[C@@H]5CC[C@]43C)[C@@H]2C1 [oleanolic acid] | – | – | no individual effects | no individual effects
3 | C[C@H]1[C@H](C)CC[C@]2(C(=O)O)CC[C@]3(C)C(=CC[C@@H]4[C@@]5(C)CC[C@H](O)C(C)(C)[C@@H]5CC[C@]43C)[C@H]12 [ursolic acid] | – | – | no individual effects | no individual effects

From patent US20200171117A1, “DRY EYE BOTANICALS” (ACCESS BUSINESS GROUP INTERNATIONAL LLC, priority 2018, published 2020)
